{
  "source": "patent US9598418B2",
  "about": "“Substituted phthalazin-1 (2H)-one derivatives as selective inhibitors of poly (ADP-ribose) polymerase-1” (CADILA HEALTHCARE LIMITED, priority 2012, dated 2017)",
  "key": {"[1]": {"system": "SW620 colorectal tumor cells (xenograft tumors)", "experiment": "In vivo antitumor efficacy in combination with temozolomide (TMZ) in an SW620 tumor model", "set-up": "species or system Female athymic nude mice", "details": "for Tumor growth delay: time to RTV4 treated minus control", "method": "On basis of the in vitro data, the ability of selected compounds to potentiate the antitumor activity of the methylating chemotherapeutic agent, temozolomide, was evaluated in an SW 620 tumor model.\nAnimals bearing SW 620 xenograft tumors were treated with the compounds in combination with TMZ (50 mg/Kg, po) once daily for 5 consecutive days, after which the tumors were left to grow out.\nFemale athymic nude mice were used for antitumor in vivo studies. SW620 colorectal tumor cells (1×10^7 cells per animal) were implanted s.c. into one flank of each mouse. When tumors were palpable (10-12 days after implantation), animals were treated (n=6-8/group) with five daily doses of temozolomide administered per os as a suspension in 0.5% methyl cellulose at 50 mg/kg either alone or in combination with a five daily per os administrations of PARP inhibitor at different doses. Tumor growths were measured using two-dimensional caliper measurements. Tumor volume was calculated using the equation a^2×b/2, where a is the smallest measurement and b is the largest. Data are presented as median relative tumor volumes (RTV), defined as the calculated tumor volume divided by the calculated tumor volume on the initial day of treatment (day 0). Thus, on day 0, the RTV value is 1 and RTV4 is when the tumor is four times as large as its initial value. Control animals were treated with vehicle ([…] in methyl cellulose) alone tumor growth delay (TGD)=Time to RTV4 in treated group−time to RTV4 control."}, "[2]": {"biological_target": "T1, PARP-1 (Homo sapiens, UniProt P09874)", "T1 construct": "purchased Trevigen", "T1 sequence (P09874 whole entry)": "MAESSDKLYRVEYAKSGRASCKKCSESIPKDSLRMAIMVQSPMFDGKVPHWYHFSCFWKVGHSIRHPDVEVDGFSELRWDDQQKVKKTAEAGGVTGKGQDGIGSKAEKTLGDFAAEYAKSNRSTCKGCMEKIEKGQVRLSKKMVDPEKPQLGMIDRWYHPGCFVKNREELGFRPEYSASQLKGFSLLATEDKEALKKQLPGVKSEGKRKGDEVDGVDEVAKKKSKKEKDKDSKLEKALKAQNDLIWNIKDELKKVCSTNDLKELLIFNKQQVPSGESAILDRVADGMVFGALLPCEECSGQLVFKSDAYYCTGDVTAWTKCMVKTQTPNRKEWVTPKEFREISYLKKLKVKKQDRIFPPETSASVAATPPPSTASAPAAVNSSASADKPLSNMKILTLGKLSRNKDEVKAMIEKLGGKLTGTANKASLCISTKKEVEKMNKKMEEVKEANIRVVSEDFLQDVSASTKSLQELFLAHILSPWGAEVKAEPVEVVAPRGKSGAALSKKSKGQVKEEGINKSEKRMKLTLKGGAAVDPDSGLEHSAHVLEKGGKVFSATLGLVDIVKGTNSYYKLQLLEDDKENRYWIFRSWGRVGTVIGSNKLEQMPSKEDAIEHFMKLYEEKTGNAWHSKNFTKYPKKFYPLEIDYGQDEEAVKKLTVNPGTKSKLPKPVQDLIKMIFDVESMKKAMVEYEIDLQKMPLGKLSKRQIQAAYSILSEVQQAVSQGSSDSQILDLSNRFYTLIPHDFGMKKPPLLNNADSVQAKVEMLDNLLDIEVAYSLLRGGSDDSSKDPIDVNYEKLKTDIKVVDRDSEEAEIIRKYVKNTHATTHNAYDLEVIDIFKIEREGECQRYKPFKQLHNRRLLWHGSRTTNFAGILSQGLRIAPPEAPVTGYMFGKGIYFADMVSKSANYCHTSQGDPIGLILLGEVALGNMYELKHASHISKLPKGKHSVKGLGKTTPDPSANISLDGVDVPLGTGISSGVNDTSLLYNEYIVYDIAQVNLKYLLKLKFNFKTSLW", "experiment": "PARP-1 inhibitory activity, HT universal colorimetric PARP assay kit (Trevigen)", "assay_type": "biochemical", "details": "estimation as calculated from a 4 point dose response curve; read-out: PARP-1 activity in vitro IC50", "method": "The compounds were tested for PARP-1 inhibitory activity by using HT universal colorimetric PARP assay kit obtained from Trevigen, following manufacturer's protocol."}, "[3]": {"details": "compound 10 mg/kg, po + TMZ 50 mg/kg, once daily for 5 days, compound 45 min before TMZ"}, "[4]": {"details": "compound 10 mg/kg, po + TMZ 50 mg/kg, once daily for 5 days"}},
  "data": [
    {"molecule": "O=C(c1cc(Cc2n[nH]c(=O)c3ccccc23)ccc1F)N1Cc2cocc2C1", "note": "[Compound 20, 4-(3-(5,6-dihydro-4H-furo[3,4-c]pyrrole-5-carbonyl)-4-fluorobenzyl)phthalazin-1(2H)-one]", "values": [
      {"measurement": "Median time to RTV4", "setting": "[1]; compound 50 mg/kg, po + TMZ 50 mg/kg, once daily for 5 days, compound 45 min before TMZ", "value": 43, "unit": "days"},
      {"measurement": "Tumor growth delay", "setting": "[1]; compound 50 mg/kg, po + TMZ 50 mg/kg, once daily for 5 days", "value": 33, "unit": "days"},
      {"measurement": "IC50", "setting": "[2]", "value": 11.8, "unit": "nM"}
    ]},
    {"molecule": "Cn1cc2c(n1)CN(C(=O)c1cc(Cc3n[nH]c(=O)c4ccccc34)ccc1F)C2", "note": "[Compound 35, 4-(4-fluoro-3-(2-methyl-2,4,5,6-tetrahydropyrrolo[3,4-c]pyrazole-5-carbonyl)benzyl) phthalazin-1(2H)-one]", "values": [
      {"measurement": "Median time to RTV4", "setting": "[1]; [3]", "value": 50, "unit": "days"},
      {"measurement": "Tumor growth delay", "setting": "[1]; [4]", "value": 40, "unit": "days"},
      {"measurement": "IC50", "setting": "[2]", "value": 29.9, "unit": "nM"}
    ]},
    {"molecule": "Cn1ncc2c1CN(C(=O)c1cc(Cc3n[nH]c(=O)c4ccccc34)ccc1F)C2", "note": "[Compound 36]", "values": [
      {"measurement": "Median time to RTV4", "setting": "[1]; [3]", "value": 37, "unit": "days"},
      {"measurement": "Tumor growth delay", "setting": "[1]; [4]", "value": 27, "unit": "days"},
      {"measurement": "Median time to RTV4", "setting": "[1]; compound 30 mg/kg, po + TMZ 50 mg/kg, once daily for 5 days, compound 45 min before TMZ", "value": 44, "unit": "days"},
      {"measurement": "Tumor growth delay", "setting": "[1]; compound 30 mg/kg, po + TMZ 50 mg/kg, once daily for 5 days", "value": 34, "unit": "days"},
      {"measurement": "Median time to RTV4", "setting": "[1]; compound 100 mg/kg, po + TMZ 50 mg/kg, once daily for 5 days, compound 45 min before TMZ", "value": 65, "unit": "days"},
      {"measurement": "Tumor growth delay", "setting": "[1]; compound 100 mg/kg, po + TMZ 50 mg/kg, once daily for 5 days", "value": 55, "unit": "days"},
      {"measurement": "IC50", "setting": "[2]", "value": 27.9, "unit": "nM"}
    ]},
    {"molecule": "Cn1nnc2c(C(N)=O)ncn2c1=O", "note": "[Temozolomide, reference compound]", "values": [
      {"measurement": "Median time to RTV4", "setting": "[1]; Temozolomide alone 50 mg/kg, po, once daily for 5 consecutive days", "value": 22, "unit": "days"},
      {"measurement": "Tumor growth delay", "setting": "[1]; Temozolomide alone 50 mg/kg, po, once daily for 5 days", "value": 12, "unit": "days"}
    ]},
    {"molecule": "Mixture of 1 & 2 Ethyl 4-(3-(2,4,5,6-tetrahydropyrrolo[3,4-c]pyrazole-5-carbonyl)-4-fluorobenzyl)phthalazin-1(2H)-one [Compound 40]", "values": [
      {"measurement": "IC50", "setting": "[2]", "value": 9.9, "unit": "nM"}
    ]},
    {"molecule": "Mixture of 4-(4-fluoro-3-(1-methyl-1,4,5,6-tetrahydropyrrolo[3,4-c]pyrazole-5-carbonyl)benzyl)phthalazin-1(2H)-one compound with 4-(4-fluoro-3-(2-methyl-2,4,5,6-tetrahydropyrrolo[3,4-c]pyrazole-5-carbonyl)benzyl)phthalazin-1(2H)-one (1:3) [Compound 28]", "values": [
      {"measurement": "IC50", "setting": "[2]", "value": 20.7, "unit": "nM"}
    ]},
    {"molecule": "Mixture of (1 & 2 isopropyl) 4-(4-fluoro-3-(1,4,5,6-tetrahydropyrrolo[3,4-c]pyrazole-5-carbonyl)benzyl)phthalazin-1(2H)-one [Compound 44]", "values": [
      {"measurement": "IC50", "setting": "[2]", "value": 19.9, "unit": "nM"}
    ]}
  ]
}
